# In ChEMBL document CHEMBL4680110 (2018):
# Activity calls are given as the source filed them. Peptide text beside a SMILES is read from it.
# Columns and labels:
# [1] = target: T1, GABA-B receptor (Homo sapiens) (UniProt Q9UBS5+O75899); test: Activation of human GABAB1/GABAB2 expressed in HEK293 cells co-transfected with rat CaV2.2 channel assessed as reduction in CaV2.2-mediated peak-current amplitude in response to depolarizing pulse at 1 nM by whole cell patch clamp assay relative to control; format: cell-based; conditions: HEK293T
# [2] = Selectivity index, ratio of IC50 for inhibition of rat alpha9alpha10 nAChR expressed in Xenopus laevis oocytes to IC50 for activation of human GABAB1/GABAB2 expressed in HEK293 cells co-transfected with rat CaV2.2 channel assessed as reduction in CaV2.2-mediated peak Ba2+ current amplitude; format: cell-based
# [3] = target: Neuronal acetylcholine receptor subunit alpha-7 (Rattus norvegicus) (UniProt Q05941); test: Inhibition of rat alpha7 nAChR expressed in Xenopus laevis oocytes assessed as inhibition of Ach-induced response at 10 uM at -80 mV holding potential preincubated for 5 mins followed by Ach stimulation by two electrode voltage-clamp assay relative to control; format: cell-based; conditions: Oocyte
# [4] = target: Neuronal acetylcholine receptor; alpha3/beta2 (Rattus norvegicus) (UniProt P04757+P12390); test: Inhibition of rat alpha3beta2 nAChR expressed in Xenopus laevis oocytes assessed as inhibition of Ach-induced response at 10 uM at -80 mV holding potential preincubated for 5 mins followed by Ach stimulation by two electrode voltage-clamp assay relative to control; format: cell-based; conditions: Oocyte
# [5] = target: Neuronal acetylcholine receptor; alpha2/beta4 (Rattus norvegicus) (UniProt P12389+P12392); test: Inhibition of rat alpha2beta4 nAChR expressed in Xenopus laevis oocytes assessed as inhibition of Ach-induced response at 10 uM at -80 mV holding potential preincubated for 5 mins followed by Ach stimulation by two electrode voltage-clamp assay relative to control; format: cell-based; conditions: Oocyte
# Rattus norvegicus [6] = test: Analgesic activity in Sprague-Dawley rat model of chronic constriction injury-induced neuropathic pain assessed as increase in pain threshold elevation percentage at 0.3 to 15 nmol/kg, IM administered as single dose measured after 2 to 2.5 hrs post dose; format: functional, organism-based; conditions: dose 0.3-15 nmol/kg, time 2-2.5 hrs
# Rattus norvegicus [7] = organism: Rattus norvegicus; test: Inhibition of TTX-resistant sodium channel in Sprague-Dawley rat DRG neuron at 10 uM at 10 mV holding potential by whole cell patch clamp technique
# [8] = Selectivity index, ratio of IC50 for inhibition of human alpha9alpha10 nAChR expressed in Xenopus laevis oocytes to IC50 for activation of human GABAB1/GABAB2 expressed in HEK293 cells co-transfected with rat CaV2.2 channel assessed as reduction in CaV2.2-mediated peak-current amplitude; format: cell-based
# GABA-B receptor = GABA-B receptor (Homo sapiens, UniProt O75899+Q9UBS5); test: Activation of human GABAB1/GABAB2 expressed in HEK293 cells co-transfected with rat CaV2.2 channel assessed as reduction in CaV2.2-mediated peak-current amplitude in response to the depolarizing pulse by whole cell patch clamp assay; format: cell-based, HEK293T
# [9] = target: Neuronal acetylcholine receptor; alpha9/alpha10 (Homo sapiens, UniProt Q9GZZ6+Q9UGM1); test: Inhibition of human alpha9alpha10 nAChR expressed in Xenopus laevis oocytes assessed as inhibition of Ach-induced response at -80 mV holding potential preincubated for 5 mins followed by Ach stimulation by two electrode voltage-clamp assay; format: cell-based, Oocyte
# Rattus norvegicus [10] = test: Analgesic activity in Sprague-Dawley rat model of PNL injury-induced neuropathic pain assessed as pain threshold elevation percentage at 1.5 nmol/kg, IM administered as single dose measured after 2 to 2.5 hrs post dose; format: functional; conditions: time 2-2.5 hrs
# Rattus norvegicus [11] = test: Analgesic activity in Sprague-Dawley rat model of PNL injury-induced neuropathic pain assessed as pain threshold elevation percentage at 0.3 to 15 nmol/kg, IM administered as single dose measured after 2 to 2.5 hrs post dose; format: functional, organism-based; conditions: dose 0.3-15 nmol/kg, time 2-2.5 hrs
# Neuron = test: Inhibition of TTX-sensitive sodium channel in Sprague-Dawley rat DRG neuron at 10 uM at -10 mV holding potential by whole cell patch clamp technique; format: tissue-based
# [12] = target: Neuronal acetylcholine receptor; alpha4/beta2 (Rattus norvegicus) (UniProt P09483+P12390); test: Inhibition of rat alpha4beta2 nAChR expressed in Xenopus laevis oocytes assessed as inhibition of Ach-induced response at 10 uM at -80 mV holding potential preincubated for 5 mins followed by Ach stimulation by two electrode voltage-clamp assay relative to control; format: cell-based; conditions: Oocyte
# [13] = target: T1, GABA-B receptor (Homo sapiens); test: Activation of human GABAB1/GABAB2 expressed in HEK293 cells co-transfected with rat CaV2.2 channel assessed as reduction in CaV2.2-mediated Ba2+ peak-current amplitude in response to depolarizing pulse in presence of 1 uM GABAB receptor antagonist CGP55845 by whole cell patch clamp assay; format: cell-based; conditions: HEK293T, time 6.0 hrs
# [14] = target: Neuronal acetylcholine receptor; alpha2/beta2 (Rattus norvegicus) (UniProt P12389+P12390); test: Inhibition of rat alpha2beta2 nAChR expressed in Xenopus laevis oocytes assessed as inhibition of Ach-induced response at 10 uM at -80 mV holding potential preincubated for 5 mins followed by Ach stimulation by two electrode voltage-clamp assay relative to control; format: cell-based; conditions: Oocyte
# Rattus norvegicus [15] = test: Analgesic activity in Sprague-Dawley rat model of PNL injury-induced neuropathic pain assessed as pain threshold elevation percentage at 0.3 nmol/kg, IM administered as single dose measured after 2 to 2.5 hrs post dose; format: functional; conditions: time 2-2.5 hrs
# Rattus norvegicus [16] = test: Analgesic activity in Sprague-Dawley rat model of PNL injury-induced neuropathic pain assessed as pain threshold elevation percentage at 15 nmol/kg, IM administered as single dose measured after 2 to 2.5 hrs post dose; format: functional; conditions: time 2-2.5 hrs
# [17] = target: Nicotinic acetylcholine receptor alpha9/alpha10 (Rattus norvegicus, UniProt P43144+Q9JLB5); test: Inhibition of rat alpha9alpha10 nAChR expressed in Xenopus laevis oocytes assessed as inhibition of Ach-induced response at -80 mV holding potential preincubated for 5 mins followed by Ach stimulation by two electrode voltage-clamp assay; format: cell-based, Oocyte
# [18] = target: Neuronal acetylcholine receptor; alpha3/beta4 (Rattus norvegicus) (UniProt P04757+P12392); test: Inhibition of rat alpha3beta4 nAChR expressed in Xenopus laevis oocytes assessed as inhibition of Ach-induced response at 10 uM at -80 mV holding potential preincubated for 5 mins followed by Ach stimulation by two electrode voltage-clamp assay relative to control; format: cell-based; conditions: Oocyte
# Neuronal acetylcholine receptor; alpha9/alpha10, sequence (Q9UGM1 whole entry): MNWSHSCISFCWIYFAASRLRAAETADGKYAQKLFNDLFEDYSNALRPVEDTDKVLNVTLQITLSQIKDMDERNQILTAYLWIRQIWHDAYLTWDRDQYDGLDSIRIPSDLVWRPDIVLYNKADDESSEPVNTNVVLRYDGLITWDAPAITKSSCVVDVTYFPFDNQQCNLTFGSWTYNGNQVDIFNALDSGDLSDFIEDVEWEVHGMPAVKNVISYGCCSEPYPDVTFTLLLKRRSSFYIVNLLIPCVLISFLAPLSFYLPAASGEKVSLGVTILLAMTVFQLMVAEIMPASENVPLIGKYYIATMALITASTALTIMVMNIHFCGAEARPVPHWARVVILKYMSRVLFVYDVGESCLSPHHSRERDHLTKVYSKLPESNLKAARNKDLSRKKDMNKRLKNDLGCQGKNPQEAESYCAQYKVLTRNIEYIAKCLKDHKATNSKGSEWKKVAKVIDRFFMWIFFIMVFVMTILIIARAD
# Neuronal acetylcholine receptor; alpha9/alpha10, sequence (Q9GZZ6 whole entry): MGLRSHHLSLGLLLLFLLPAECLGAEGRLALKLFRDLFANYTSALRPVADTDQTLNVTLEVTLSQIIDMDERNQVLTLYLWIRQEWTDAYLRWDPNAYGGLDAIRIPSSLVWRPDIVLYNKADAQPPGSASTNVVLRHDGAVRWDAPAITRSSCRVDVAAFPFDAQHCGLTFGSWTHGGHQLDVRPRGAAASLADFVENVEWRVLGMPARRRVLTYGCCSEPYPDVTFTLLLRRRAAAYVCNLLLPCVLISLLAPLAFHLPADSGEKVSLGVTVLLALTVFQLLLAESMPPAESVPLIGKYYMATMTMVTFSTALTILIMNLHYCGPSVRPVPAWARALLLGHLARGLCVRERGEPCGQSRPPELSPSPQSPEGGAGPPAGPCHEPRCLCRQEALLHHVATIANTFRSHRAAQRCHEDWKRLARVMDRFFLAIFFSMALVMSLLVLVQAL
# Nicotinic acetylcholine receptor alpha9/alpha10, sequence (P43144 whole entry): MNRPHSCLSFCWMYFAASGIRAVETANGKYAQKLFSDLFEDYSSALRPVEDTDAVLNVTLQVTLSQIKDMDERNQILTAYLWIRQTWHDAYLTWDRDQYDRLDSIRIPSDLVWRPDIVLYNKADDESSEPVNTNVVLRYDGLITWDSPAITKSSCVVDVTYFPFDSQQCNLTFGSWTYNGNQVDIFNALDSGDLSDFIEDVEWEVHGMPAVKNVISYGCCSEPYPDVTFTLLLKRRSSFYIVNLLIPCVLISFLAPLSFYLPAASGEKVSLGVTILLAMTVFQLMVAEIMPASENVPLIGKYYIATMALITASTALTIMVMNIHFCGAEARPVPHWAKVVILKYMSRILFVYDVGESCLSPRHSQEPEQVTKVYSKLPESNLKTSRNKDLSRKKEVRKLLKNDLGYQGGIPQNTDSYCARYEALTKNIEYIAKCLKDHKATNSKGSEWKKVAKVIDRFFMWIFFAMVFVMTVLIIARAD
# Nicotinic acetylcholine receptor alpha9/alpha10, sequence (Q9JLB5 whole entry): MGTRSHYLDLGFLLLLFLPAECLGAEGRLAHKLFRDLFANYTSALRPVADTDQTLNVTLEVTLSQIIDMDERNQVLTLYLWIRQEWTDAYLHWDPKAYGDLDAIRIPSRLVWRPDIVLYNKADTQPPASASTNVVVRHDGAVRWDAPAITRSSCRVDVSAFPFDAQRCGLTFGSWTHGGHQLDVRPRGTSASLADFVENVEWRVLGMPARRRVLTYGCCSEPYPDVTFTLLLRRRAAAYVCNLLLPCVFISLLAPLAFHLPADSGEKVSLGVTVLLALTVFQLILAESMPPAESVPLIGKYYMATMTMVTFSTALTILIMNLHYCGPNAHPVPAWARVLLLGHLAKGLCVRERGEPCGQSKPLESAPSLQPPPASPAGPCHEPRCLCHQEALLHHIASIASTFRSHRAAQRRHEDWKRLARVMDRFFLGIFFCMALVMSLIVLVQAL
# GABA-B receptor, sequence (Q9UBS5 whole entry): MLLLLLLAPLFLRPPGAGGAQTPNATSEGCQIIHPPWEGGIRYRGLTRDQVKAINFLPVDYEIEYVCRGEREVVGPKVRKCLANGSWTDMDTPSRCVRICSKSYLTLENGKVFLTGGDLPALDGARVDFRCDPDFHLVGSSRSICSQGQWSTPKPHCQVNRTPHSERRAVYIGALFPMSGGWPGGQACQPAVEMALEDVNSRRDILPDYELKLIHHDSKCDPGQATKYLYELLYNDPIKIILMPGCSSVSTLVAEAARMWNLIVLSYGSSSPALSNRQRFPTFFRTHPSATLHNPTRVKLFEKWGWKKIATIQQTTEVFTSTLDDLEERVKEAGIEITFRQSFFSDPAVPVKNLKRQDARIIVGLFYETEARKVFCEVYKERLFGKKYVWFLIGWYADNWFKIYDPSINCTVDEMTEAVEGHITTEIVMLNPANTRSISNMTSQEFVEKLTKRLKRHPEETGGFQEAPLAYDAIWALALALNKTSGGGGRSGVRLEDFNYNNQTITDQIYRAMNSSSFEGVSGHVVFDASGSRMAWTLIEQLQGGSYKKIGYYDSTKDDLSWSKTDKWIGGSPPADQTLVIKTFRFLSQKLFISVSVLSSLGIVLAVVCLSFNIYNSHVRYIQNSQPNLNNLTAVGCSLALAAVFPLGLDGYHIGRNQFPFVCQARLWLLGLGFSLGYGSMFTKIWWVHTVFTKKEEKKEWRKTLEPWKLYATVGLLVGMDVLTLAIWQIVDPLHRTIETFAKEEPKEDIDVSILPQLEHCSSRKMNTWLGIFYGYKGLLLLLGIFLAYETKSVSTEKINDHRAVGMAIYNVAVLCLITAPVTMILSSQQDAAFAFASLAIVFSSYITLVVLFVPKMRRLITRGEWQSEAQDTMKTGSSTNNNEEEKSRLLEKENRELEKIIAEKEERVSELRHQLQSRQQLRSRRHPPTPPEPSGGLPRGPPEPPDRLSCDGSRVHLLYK
# GABA-B receptor, sequence (O75899 whole entry): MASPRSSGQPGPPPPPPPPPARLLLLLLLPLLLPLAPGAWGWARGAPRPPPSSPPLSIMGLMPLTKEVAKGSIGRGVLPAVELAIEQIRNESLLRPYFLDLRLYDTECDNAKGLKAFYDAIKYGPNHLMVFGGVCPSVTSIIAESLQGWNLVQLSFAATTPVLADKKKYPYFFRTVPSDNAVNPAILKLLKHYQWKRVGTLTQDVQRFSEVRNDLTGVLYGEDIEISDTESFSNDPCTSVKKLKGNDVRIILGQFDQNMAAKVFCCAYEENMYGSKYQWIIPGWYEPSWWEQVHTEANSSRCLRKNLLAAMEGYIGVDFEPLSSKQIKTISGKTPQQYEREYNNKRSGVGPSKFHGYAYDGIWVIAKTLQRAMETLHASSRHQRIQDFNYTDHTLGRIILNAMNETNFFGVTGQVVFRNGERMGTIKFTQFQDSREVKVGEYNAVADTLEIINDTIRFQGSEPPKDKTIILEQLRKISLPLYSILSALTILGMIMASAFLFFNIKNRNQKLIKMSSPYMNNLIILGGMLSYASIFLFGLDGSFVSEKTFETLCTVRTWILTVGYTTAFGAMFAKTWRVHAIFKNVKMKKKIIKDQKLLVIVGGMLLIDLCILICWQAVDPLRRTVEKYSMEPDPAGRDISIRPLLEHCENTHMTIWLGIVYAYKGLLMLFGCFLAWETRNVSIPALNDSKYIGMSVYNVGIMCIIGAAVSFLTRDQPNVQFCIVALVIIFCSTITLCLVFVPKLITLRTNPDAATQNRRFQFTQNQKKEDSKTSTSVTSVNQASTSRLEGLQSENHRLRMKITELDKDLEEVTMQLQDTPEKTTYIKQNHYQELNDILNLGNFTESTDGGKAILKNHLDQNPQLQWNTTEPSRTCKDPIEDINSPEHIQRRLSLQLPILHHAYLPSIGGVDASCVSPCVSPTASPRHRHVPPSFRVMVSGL
# Neuronal acetylcholine receptor subunit alpha-7 (Rattus norvegicus), sequence (Q05941 whole entry): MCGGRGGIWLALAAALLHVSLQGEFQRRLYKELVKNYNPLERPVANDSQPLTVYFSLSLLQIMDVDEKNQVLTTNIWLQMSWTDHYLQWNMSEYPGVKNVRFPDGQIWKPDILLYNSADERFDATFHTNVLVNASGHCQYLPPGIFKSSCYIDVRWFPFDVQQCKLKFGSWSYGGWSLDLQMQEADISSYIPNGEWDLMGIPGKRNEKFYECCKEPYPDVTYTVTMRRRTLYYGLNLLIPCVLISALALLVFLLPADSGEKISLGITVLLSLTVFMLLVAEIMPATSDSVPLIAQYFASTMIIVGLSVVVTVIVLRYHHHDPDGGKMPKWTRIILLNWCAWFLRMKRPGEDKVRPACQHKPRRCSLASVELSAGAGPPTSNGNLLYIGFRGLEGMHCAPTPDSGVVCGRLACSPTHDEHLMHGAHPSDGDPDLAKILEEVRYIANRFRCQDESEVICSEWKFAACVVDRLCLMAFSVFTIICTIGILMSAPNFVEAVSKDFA
SMILES,Ratio IC50 [2],Ratio IC50 [8],IC50 (GABA-B receptor),IC50 [9],Activity (Rattus norvegicus [16]),IC50 [17],other results
CC[C@H](C)[C@H](NC(=O)[C@H](CCC(=O)O)NC(=O)[C@@H]1CCCN1C(=O)[C@H](Cc1cnc[nH]1)NC(=O)[C@H](CC(=O)O)NC(=O)[C@H](Cc1ccc(O)cc1)NC(=O)[C@H](CCCNC(=N)N)NC(=O)[C@H](CS)NC(=O)[C@H](CCCNC(=N)N)NC(=O)[C@@H]1CCCN1C(=O)[C@H](CC(=O)O)NC(=O)[C@H](CO)NC(=O)[C@H](CS)NC(=O)[C@H](CS)NC(=O)CN)C(=O)N[C@@H](CS)C(N)=O (H-GCCSDPRCRYDHPEIC-NH2),1000,74.1,4.9 nM,363 nM,85%,4900 nM,inhibition [1]: 19.6%; inhibition [3]: > 50%; inhibition [4]: > 50%; inhibition [5]: > 50%; Activity (Rattus norvegicus [6]): Active; inhibition (Rattus norvegicus [7]): inactive; Activity (Rattus norvegicus [10]): 47.2%; Activity (Rattus norvegicus [11]): Dose-dependent effect; inhibition (Neuron): inactive; inhibition [12]: > 50%; Activity [13]: inactive; inhibition [14]: > 50%; Activity (Rattus norvegicus [15]): 16.7%; inhibition [18]: > 50%
CC[C@H](C)[C@H](NC(=O)[C@H](CCC(=O)O)NC(=O)[C@@H]1CCCN1C(=O)[C@H](Cc1cnc[nH]1)NC(=O)[C@H](CC(N)=O)NC(=O)[C@H](Cc1ccc(O)cc1)NC(=O)[C@H](CCCNC(=N)N)NC(=O)[C@H](CS)NC(=O)[C@H](CCCNC(=N)N)NC(=O)[C@@H]1CCCN1C(=O)[C@H](CC(=O)O)NC(=O)[C@H](CO)NC(=O)[C@H](CS)NC(=O)[C@H](CS)NC(=O)CN)C(=O)N[C@@H](CS)C(N)=O (H-GCCSDPRCRYNHPEIC-NH2),< 13.9,–,> 1000 nM,–,40.8%,13900 nM,–
CC[C@H](C)[C@H](NC(=O)[C@H](CCC(=O)O)NC(=O)[C@@H]1CCCN1C(=O)[C@H](Cc1cnc[nH]1)NC(=O)[C@H](CC(=O)O)NC(=O)[C@H](Cc1ccc(O)cc1)NC(=O)[C@H](CC(N)=O)NC(=O)[C@H](CS)NC(=O)[C@H](CCCNC(=N)N)NC(=O)[C@@H]1CCCN1C(=O)[C@H](CC(=O)O)NC(=O)[C@H](CO)NC(=O)[C@H](CS)NC(=O)[C@H](CS)NC(=O)CN)C(=O)N[C@@H](CS)C(N)=O,11.8,417,2.4 nM,1000 nM,51.1%,28.3 nM,inhibition [1]: 18.8%; Activity (Rattus norvegicus [6]): Active; inhibition (Rattus norvegicus [7]): inactive; Activity (Rattus norvegicus [10]): 25.6%; inhibition (Neuron): inactive; Activity [13]: inactive; Activity (Rattus norvegicus [15]): 12.2%
CC[C@H](C)[C@H](NC(=O)[C@H](CCC(=O)O)NC(=O)[C@@H]1CCCN1C(=O)[C@H](Cc1cnc[nH]1)NC(=O)[C@H](CCCNC(=N)N)NC(=O)[C@H](Cc1ccc(O)cc1)NC(=O)[C@H](CCCNC(=N)N)NC(=O)[C@H](CS)NC(=O)[C@H](CCCNC(=N)N)NC(=O)[C@@H]1CCCN1C(=O)[C@H](CC(=O)O)NC(=O)[C@H](CO)NC(=O)[C@H](CS)NC(=O)[C@H](CS)NC(=O)CN)C(=O)N[C@@H](CS)C(N)=O (H-GCCSDPRCRYRHPEIC-NH2),–,–,> 1000 nM,–,35.3%,–,–
CC[C@H](C)[C@H](NC(=O)[C@H](CCC(=O)O)NC(=O)[C@@H]1CCCN1C(=O)[C@H](Cc1cnc[nH]1)NC(=O)[C@H](CO)NC(=O)[C@H](Cc1ccc(O)cc1)NC(=O)[C@H](CCCNC(=N)N)NC(=O)[C@H](CS)NC(=O)[C@H](CCCNC(=N)N)NC(=O)[C@@H]1CCCN1C(=O)[C@H](CC(=O)O)NC(=O)[C@H](CO)NC(=O)[C@H](CS)NC(=O)[C@H](CS)NC(=O)CN)C(=O)N[C@@H](CS)C(N)=O (H-GCCSDPRCRYSHPEIC-NH2),–,–,18.6 nM,–,9%,–,–
CC[C@H](C)[C@H](NC(=O)[C@H](CCC(=O)O)NC(=O)[C@@H]1CCCN1C(=O)[C@H](Cc1cnc[nH]1)NC(=O)[C@H](CC(=O)O)NC(=O)[C@H](Cc1ccc(O)cc1)NC(=O)[C@H](CCCNC(=N)N)NC(=O)[C@H](CS)NC(=O)[C@H](CCCNC(=N)N)NC(=O)[C@@H]1CCCN1C(=O)[C@H](CC(=O)O)NC(=O)[C@H](CO)NC(=O)[C@H](CS)NC(=O)[C@H](CS)NC(=O)CNC(C)=O)C(=O)N[C@@H](CS)C(N)=O (Ac-GCCSDPRCRYDHPEIC-NH2),128,–,18.9 nM,–,24.8%,2420 nM,–
CC[C@H](C)[C@H](NC(=O)[C@H](CCC(=O)O)NC(=O)[C@@H]1CCCN1C(=O)[C@H](Cc1cnc[nH]1)NC(=O)[C@H](CC(=O)O)NC(=O)[C@H](Cc1ccc(O)cc1)NC(=O)[C@H](CCCNC(=N)N)NC(=O)[C@H](CS)NC(=O)[C@H](CCCNC(=N)N)NC(=O)[C@@H]1CCCN1C(=O)[C@H](CC(=O)O)NC(=O)[C@H](CO)NC(=O)[C@H](CS)NC(=O)[C@@H](N)CS)C(=O)N[C@@H](CS)C(N)=O (H-CCSDPRCRYDHPEIC-NH2),–,–,23.2 nM,–,32.5%,–,–
CC[C@H](C)[C@H](NC(=O)[C@H](CCC(=O)O)NC(=O)[C@@H]1CCCN1C(=O)[C@H](Cc1cnc[nH]1)NC(=O)[C@H](CC(=O)O)NC(=O)[C@H](Cc1ccc(O)cc1)NC(=O)[C@H](CC(N)=O)NC(=O)[C@H](CS)NC(=O)[C@H](CCCNC(=N)N)NC(=O)[C@@H]1CCCN1C(=O)[C@H](CC(=O)O)NC(=O)[C@H](CO)NC(=O)[C@H](CS)NC(=O)[C@H](CS)NC(=O)CNC(=O)c1ccccc1)C(=O)N[C@@H](CS)C(N)=O,–,> 10000,1.2 nM,12500 nM,–,–,–
